Measured values from ChEMBL document CHEMBL6109120, “Discovery of Novel SIK2/3 Inhibitors for the Potential Treatment of MEF2C+ Acute Myeloid Leukemia (AML)” (J Med Chem, 2025).

What was measured:
[1] = molecular target: MAP kinase-interacting serine/threonine-protein kinase 2 (Homo sapiens, UniProt Q9HBH9); assay: Binding affinity to human MKNK2 by KINOMEscan assay
[2] = molecular target: T1, Serine/threonine-protein kinase TBK1 (Homo sapiens, UniProt Q9UHD2)
T1 sequence (Q9UHD2 whole entry): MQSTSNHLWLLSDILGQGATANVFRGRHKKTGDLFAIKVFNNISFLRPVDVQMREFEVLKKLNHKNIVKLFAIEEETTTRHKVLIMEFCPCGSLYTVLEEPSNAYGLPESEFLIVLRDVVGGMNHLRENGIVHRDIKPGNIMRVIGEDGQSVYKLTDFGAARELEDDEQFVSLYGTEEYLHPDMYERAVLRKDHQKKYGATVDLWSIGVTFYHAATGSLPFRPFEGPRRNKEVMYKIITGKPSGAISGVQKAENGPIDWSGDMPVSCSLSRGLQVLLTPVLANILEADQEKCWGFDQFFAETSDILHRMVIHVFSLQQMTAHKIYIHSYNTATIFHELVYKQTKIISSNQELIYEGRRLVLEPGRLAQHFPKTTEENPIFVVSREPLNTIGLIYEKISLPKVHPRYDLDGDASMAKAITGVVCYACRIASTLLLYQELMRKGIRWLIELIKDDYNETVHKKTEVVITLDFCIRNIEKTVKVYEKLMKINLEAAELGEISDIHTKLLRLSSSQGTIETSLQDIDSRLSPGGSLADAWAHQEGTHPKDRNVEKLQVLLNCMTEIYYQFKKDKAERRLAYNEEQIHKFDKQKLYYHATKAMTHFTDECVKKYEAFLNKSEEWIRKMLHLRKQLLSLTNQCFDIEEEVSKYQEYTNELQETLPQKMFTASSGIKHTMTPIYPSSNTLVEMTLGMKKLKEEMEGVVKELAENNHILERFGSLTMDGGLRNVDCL
Description: Binding affinity to human TBK1 by KINOMEscan assay

[3] = molecular target: Tyrosine-protein kinase Lck (Homo sapiens, UniProt P06239); assay: Binding affinity to human LCK by KINOMEscan assay
[4] = molecular target: Voltage-gated inwardly rectifying potassium channel KCNH2 (Homo sapiens, UniProt Q12809); assay: Inhibition of hERG expressed in HEK cells assessed as K+ tail current by whole-cell electrophysiology; assay type: toxicity, cell-based
Cytochrome P450 2D6 = Cytochrome P450 2D6 (Homo sapiens, UniProt P10635); assay: Inhibition of CYP2D6 in human liver microsomes assessed as dextromethorphan O-demethylation reaction measured after 30 mins by LC/MS/MS analysis; assay type: ADME, Microsome
[5] = molecular target: Mast/stem cell growth factor receptor Kit (Homo sapiens, UniProt P10721); assay: Binding affinity to human KIT by KINOMEscan assay
Cytochrome P450 1A2 = molecular target: T2, Cytochrome P450 1A2 (Homo sapiens, UniProt P05177); assay: Inhibition of CYP1A2 in human liver microsomes assessed as Phenacetin O-deethylation reaction measured after 30 mins by LC/MS/MS analysis; assay type: ADME, Microsome
T2 sequence (P05177 whole entry): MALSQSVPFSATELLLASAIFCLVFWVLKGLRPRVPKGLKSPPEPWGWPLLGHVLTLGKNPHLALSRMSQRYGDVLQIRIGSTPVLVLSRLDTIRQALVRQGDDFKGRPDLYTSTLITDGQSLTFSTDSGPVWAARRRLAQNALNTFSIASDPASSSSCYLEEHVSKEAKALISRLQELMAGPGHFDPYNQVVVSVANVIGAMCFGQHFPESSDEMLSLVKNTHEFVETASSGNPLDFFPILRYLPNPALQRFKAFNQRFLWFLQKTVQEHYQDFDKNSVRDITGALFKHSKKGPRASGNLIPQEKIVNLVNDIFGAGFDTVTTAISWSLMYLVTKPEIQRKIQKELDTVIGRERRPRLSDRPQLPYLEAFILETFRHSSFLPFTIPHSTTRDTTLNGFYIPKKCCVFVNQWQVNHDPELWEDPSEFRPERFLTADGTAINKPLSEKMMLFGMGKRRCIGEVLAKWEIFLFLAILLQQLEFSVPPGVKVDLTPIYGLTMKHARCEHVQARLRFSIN

Cytochrome P450 2C9 = Cytochrome P450 2C9 (Homo sapiens, UniProt P11712); assay: Inhibition of CYP2C9 in human liver microsomes assessed as diclofenac 4-hydroxylation reaction measured after 30 mins by LC/MS/MS analysis; assay type: ADME, Microsome
Cytochrome P450 3A4 = Cytochrome P450 3A4 (Homo sapiens, UniProt P08684); assay: Inhibition of CYP3A4 in human liver microsomes assessed as midazolam 1-hydroxylation reaction measured after 30 mins by LC/MS/MS analysis; assay type: ADME, Microsome
Cytochrome P450 2C19 = Cytochrome P450 2C19 (Homo sapiens, UniProt P33261); assay: Inhibition of CYP2C19 in human liver microsomes assessed as S-mephenytoin 4-hydroxylation reaction measured after 30 mins by LC/MS/MS analysis; assay type: ADME, Microsome
[6] = molecular target: T3, Dual specificity mitogen-activated protein kinase kinase 5 (Homo sapiens, UniProt Q13163)
T3 sequence (Q13163 whole entry): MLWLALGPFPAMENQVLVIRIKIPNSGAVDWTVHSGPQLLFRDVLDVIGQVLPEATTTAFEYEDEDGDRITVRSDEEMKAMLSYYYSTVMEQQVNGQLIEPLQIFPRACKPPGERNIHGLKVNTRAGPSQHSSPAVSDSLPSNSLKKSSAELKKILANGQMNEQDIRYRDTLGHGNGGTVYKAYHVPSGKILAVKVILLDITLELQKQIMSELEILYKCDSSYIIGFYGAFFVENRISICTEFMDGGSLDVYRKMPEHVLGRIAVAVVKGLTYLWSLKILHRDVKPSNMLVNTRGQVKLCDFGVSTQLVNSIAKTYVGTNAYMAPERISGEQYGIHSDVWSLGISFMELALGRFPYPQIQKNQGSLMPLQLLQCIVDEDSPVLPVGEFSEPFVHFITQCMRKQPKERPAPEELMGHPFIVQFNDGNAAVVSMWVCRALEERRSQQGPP
Description: Binding affinity to human MEK5 by KINOMEscan assay

Cytochrome P450 2C19, sequence (P33261 whole entry): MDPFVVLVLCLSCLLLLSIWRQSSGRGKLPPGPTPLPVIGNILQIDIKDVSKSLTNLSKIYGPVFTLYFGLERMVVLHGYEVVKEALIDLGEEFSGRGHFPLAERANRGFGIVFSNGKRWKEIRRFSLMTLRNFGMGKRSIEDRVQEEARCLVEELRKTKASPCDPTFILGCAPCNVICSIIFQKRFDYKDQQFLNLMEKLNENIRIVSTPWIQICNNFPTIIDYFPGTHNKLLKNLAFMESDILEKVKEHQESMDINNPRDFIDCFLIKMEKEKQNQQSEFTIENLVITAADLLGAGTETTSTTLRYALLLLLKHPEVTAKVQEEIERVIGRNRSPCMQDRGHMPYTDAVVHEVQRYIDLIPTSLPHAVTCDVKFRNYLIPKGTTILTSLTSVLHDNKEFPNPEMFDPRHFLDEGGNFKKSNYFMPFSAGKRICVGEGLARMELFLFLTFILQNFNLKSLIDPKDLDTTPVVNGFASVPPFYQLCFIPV
Mast/stem cell growth factor receptor Kit, sequence (P10721 whole entry): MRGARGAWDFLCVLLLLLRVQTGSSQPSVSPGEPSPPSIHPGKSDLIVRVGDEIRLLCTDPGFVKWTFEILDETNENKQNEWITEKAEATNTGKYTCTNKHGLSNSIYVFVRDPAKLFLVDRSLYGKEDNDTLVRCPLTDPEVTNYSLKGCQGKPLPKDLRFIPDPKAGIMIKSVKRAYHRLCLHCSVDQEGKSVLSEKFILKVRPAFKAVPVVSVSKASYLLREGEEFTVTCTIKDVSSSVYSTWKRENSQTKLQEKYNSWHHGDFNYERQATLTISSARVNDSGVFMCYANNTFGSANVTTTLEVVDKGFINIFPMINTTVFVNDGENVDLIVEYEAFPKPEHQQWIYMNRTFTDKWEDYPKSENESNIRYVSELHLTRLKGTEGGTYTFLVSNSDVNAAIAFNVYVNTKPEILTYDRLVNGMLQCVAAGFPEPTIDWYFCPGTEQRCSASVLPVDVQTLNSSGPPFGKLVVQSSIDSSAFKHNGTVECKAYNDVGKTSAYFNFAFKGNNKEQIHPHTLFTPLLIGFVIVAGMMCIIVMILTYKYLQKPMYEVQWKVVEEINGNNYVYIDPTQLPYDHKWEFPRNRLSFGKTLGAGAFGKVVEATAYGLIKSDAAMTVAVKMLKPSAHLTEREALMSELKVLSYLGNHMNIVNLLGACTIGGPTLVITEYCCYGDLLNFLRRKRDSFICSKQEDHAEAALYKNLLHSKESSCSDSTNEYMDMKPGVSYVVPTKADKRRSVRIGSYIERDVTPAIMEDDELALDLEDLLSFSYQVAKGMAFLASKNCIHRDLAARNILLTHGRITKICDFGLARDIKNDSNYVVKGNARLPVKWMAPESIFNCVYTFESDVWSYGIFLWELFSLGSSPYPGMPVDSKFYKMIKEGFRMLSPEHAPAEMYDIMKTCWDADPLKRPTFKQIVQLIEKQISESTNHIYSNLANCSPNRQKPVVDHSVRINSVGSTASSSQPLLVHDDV
Cytochrome P450 2C9, sequence (P11712 whole entry): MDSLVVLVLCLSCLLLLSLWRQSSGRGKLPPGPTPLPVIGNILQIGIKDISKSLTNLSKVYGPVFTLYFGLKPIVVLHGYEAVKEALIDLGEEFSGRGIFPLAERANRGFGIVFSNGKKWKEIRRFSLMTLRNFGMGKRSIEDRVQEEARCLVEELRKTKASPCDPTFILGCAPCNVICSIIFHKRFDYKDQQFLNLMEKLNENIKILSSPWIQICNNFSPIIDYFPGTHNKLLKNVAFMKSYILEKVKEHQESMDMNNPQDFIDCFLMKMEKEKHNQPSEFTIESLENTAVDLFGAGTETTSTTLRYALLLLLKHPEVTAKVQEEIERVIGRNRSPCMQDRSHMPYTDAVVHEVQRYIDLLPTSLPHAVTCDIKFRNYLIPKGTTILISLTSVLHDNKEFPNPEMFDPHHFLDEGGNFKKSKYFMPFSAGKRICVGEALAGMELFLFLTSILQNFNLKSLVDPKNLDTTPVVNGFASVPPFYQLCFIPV
Voltage-gated inwardly rectifying potassium channel KCNH2, sequence (Q12809 whole entry): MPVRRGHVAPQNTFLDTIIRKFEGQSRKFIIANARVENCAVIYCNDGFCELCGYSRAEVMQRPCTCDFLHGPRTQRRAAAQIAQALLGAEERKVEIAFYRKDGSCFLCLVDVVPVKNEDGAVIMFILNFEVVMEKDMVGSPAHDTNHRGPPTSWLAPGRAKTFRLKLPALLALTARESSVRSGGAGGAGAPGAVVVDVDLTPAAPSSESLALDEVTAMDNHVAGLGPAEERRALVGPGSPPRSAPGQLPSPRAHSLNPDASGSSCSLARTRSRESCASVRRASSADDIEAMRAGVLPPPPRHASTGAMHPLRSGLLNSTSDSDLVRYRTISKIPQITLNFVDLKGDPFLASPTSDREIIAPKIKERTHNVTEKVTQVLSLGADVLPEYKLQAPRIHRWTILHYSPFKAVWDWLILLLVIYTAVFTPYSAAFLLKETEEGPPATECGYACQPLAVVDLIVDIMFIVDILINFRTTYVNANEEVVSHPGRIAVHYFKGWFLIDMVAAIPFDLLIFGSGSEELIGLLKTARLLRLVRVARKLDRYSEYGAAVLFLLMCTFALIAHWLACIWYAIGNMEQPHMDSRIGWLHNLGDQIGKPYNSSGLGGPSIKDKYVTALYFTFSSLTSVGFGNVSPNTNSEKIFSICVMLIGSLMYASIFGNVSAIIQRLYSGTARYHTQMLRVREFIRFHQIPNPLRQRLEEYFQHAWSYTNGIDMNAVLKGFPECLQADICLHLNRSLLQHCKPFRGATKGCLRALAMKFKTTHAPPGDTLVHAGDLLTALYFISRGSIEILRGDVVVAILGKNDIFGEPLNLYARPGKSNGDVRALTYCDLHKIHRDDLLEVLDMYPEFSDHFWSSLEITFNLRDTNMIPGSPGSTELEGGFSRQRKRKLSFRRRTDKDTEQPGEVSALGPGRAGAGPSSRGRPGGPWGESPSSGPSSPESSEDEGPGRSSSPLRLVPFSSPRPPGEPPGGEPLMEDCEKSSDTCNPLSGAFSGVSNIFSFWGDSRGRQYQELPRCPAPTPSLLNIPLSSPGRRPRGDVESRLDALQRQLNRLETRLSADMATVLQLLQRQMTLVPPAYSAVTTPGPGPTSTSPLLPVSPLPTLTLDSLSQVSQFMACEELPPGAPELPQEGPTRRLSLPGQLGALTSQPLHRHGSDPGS
MAP kinase-interacting serine/threonine-protein kinase 2, sequence (Q9HBH9 whole entry): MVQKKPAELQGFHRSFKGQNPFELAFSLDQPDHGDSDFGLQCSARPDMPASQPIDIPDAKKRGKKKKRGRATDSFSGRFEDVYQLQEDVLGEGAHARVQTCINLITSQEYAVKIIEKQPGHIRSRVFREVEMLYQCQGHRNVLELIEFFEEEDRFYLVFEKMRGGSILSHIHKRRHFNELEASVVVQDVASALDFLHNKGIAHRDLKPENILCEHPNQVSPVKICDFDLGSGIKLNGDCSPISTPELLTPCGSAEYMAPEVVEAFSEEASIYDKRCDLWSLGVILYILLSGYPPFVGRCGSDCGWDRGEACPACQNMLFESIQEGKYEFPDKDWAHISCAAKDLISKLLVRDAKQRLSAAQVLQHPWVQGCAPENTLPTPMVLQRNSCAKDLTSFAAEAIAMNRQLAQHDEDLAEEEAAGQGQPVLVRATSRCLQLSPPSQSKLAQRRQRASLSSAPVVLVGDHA
Cytochrome P450 3A4, sequence (P08684 whole entry): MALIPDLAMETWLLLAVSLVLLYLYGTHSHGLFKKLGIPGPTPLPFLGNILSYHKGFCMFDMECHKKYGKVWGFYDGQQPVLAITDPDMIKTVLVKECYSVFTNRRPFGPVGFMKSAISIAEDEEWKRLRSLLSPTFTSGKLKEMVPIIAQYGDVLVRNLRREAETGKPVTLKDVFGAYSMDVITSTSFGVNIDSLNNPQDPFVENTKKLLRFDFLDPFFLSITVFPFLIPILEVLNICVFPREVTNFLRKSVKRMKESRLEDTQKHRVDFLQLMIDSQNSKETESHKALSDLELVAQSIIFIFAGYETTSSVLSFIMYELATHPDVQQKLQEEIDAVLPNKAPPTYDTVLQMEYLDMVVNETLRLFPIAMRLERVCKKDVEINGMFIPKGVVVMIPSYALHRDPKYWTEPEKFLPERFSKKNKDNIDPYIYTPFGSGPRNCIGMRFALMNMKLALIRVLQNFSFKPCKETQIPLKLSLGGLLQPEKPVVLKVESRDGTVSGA
Tyrosine-protein kinase Lck, sequence (P06239 whole entry): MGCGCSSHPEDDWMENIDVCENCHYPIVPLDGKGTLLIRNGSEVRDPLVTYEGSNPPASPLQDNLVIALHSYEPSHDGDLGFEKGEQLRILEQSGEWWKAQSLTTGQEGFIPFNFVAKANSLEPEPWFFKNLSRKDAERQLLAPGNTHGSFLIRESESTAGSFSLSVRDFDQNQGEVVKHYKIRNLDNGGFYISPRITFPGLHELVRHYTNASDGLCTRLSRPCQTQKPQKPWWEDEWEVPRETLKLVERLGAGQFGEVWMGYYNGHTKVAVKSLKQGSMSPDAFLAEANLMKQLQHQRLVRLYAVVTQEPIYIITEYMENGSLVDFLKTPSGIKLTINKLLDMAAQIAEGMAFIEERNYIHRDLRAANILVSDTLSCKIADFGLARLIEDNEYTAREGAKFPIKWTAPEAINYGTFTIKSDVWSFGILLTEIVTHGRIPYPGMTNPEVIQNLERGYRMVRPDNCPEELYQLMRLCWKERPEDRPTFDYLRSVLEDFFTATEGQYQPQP

IC50 [1]: 15 nM
IC50 [2]: 230 nM
IC50 [3]: 326 nM
IC50 (Cytochrome P450 2D6): > 50 µM
IC50 [5]: 594 nM
IC50 (Cytochrome P450 1A2): > 50 µM
IC50 (Cytochrome P450 2C9): > 50 µM
IC50 (Cytochrome P450 3A4): > 50 µM
IC50 (Cytochrome P450 2C19): > 50 µM
IC50 [6]: 2650 nM
Compound: COc1nc(-c2cc(-c3cnn(C)c3)cnc2N)cc2c1C(=O)N(CC(F)(F)F)CC2
inhibition (INH) [4]: 34%
